Here are results for one compound from patent US5330992A, “1-cyclopropyl-4-pyridyl-quinolinones” (priority 1992, dated 1994).

In series [1] the test system is mammary ductal adenocarcinoma No. 16/C (Mam16). The series can be described thus: In vivo antitumor assay, Mam16C(sc). Also on record: species or system mouse. The following applies: drug route iv. From the text:
(§1) Mice: Inbred: C3H/He and NCR-nu; and Hybrids: B6D2Fl (C57BL/6 females X DBA/2 males, CD2Fl (Balb/c females X DBS/2 males) and B6x C3fl (C57BL/6 x C3H) were bred at Wayne State University from strained obtained from the Frederick Cancer Research Facility, Frederick, Md. or purchased from commercial suppliers.
(§2) Tumors: Murine Tumor: P388 and an adriamycin-resistant (ADR) subline P388/ADR leukemia and the following transplantable solid tumors of mice were used for in Vivo testing: B16 melanoma (B16), pancreatic ductal adenocarcinoma No. 03 (Panc 03), colon adenocarcinoma No. 38 (colo 38), mammary ductal adenocarcinoma No. 16/C (Mam16) and an adriamycin-resistantsubline Mam16C/ADR. Human tumor: A single human tumor, mammary carcinoma MX-1 (MX1) was used for in vivo testing. All tumors are in the Developmental Therapeutics Program frozen tumor respository, maintained by the Biological Testing Branch, Frederick Md. Each has a detailed description, code identification number, and list of references at the National Tumor Repository. […]
(§3) Quantitative end points used assess antitumor activity included % Increased Life Span (% ILS), Tumor Cell Kill (Log10 kill), and Tumor Growth Inhibition (T/C). […]
(§4) The log10 cell kill was calculated from the following formula: [formula] where T-C is the tumor difference in the median day of death between the treated (T) and the control (C) groups and Td is the tumor doubling time (in days), the latter estimated from the best fit straight line from a log-linear growth plot of the control-group tumors in exponential growth. […]
(§5) Tumors were measured with a caliper once or twice weekly (as needed) until either tumors exceeded 1600 mg or cure was assured. […] When the control group tumors reached approximately 750-1500 mg in size (median of group), the median tumor weight of each group was determined (including zeros). […] The % T/C was calculated from the following formula for solid murine tumor models: [formula] where T and C are median tumor weights of the treatment and control groups, respectively. […]

Series [2] in a line: In vivo antitumor assay, Mam16C(sc). Further details: species or system mouse. The following applies: mouse, in vivo, drug route iv, qd 1, bid 2,3.
Text: as §1, §2, §3, §4, §5

Take `Cc1cc(-c2c(F)cc3c(=O)c(Cc4c(O)cccc4O)cn(C4CC4)c3c2F)cc(C)n1` [Example 26, 1-Cyclopropyl-6,8-difluoro-7-[2,6-dimethyl-4-pyridinyl]-3-[2,6-dihydroxyphenylmethyl]-1,4-dihydroquinoline-4-one]: the T/C % in series [1] (qd 1, bid 2,3) is listed as 28%. For the same compound, the “LOG KILL” value in series [1] (qd 1, bid 2,3, log10 cell kill) was determined as 0.90. This compound also returned an MTD in series [2] of 15 mg/kg.
